Laboratory results as given in the supplement of paper PMC4862054.

What was measured:
Assay in all cases: normalised response (% of control), CellTiter-Glo; higher = more viable cells (100 = DMSO, 0 = benzethonium chloride kill control)
Conditions in all cases: incubation time: 72 h
HCC1143 = system: HCC1143
Outline: (§1)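 Breast cancer cell lines were exposed for 72 h in 384-well plates to compound at 5 concentrations, 10-fold apart, covering a 10,000-fold range fixed for each compound. Plates were read for CellTox Green fluorescence and CellTiter-Glo luminescence and normalised to 0.1 % DMSO (100) and a positive kill control (0). Each value is the normalised signal at one concentration of the series.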

MDA-MB-436 = system: MDA-MB-436
Outline: as §1

MDA-MB-468 = system: MDA-MB-468
Outline: as §1

BT-549 = system: BT-549
Outline: as §1

SK-BR-3 = system: SK-BR-3
Outline: as §1

MDA-MB-231 = system: MDA-MB-231
Outline: as §1

MFM-223 = system: MFM-223
Outline: as §1

HCC1937 = system: HCC1937
Outline: as §1

HDQ-P1 = system: HDQ-P1
Outline: as §1

BT-474 = system: BT-474
Outline: as §1

MCF-10A = system: MCF-10A
Outline: as §1

CAL-51 = system: CAL-51
Outline: as §1

MDA-MB-453 = system: MDA-MB-453
Outline: as §1

CAL-148 = system: CAL-148
Outline: as §1

DU-4475 = system: DU-4475
Outline: as §1

CAL-120 = system: CAL-120
Outline: as §1

Hs578T = system: Hs578T
Outline: as §1

HCC1599 = system: HCC1599
Outline: as §1

CAL-85-1 = system: CAL-85-1
Outline: as §1

SMILES | normalised response (HCC1143) [%] | normalised response (MDA-MB-436) [%] | normalised response (MDA-MB-468) [%] | normalised response (BT-549) [%] | normalised response (SK-BR-3) [%] | normalised response (MDA-MB-231) [%] | normalised response (MFM-223) [%] | normalised response (HCC1937) [%] | normalised response (HDQ-P1) [%] | normalised response (BT-474) [%] | normalised response (MCF-10A) [%] | normalised response (CAL-51) [%] | normalised response (MDA-MB-453) [%] | normalised response (CAL-148) [%] | normalised response (DU-4475) [%] | normalised response (CAL-120) [%] | normalised response (Hs578T) [%] | normalised response (HCC1599) [%] | normalised response (CAL-85-1) [%]
CC[C@H](Nc1ncnc2[nH]cnc12)c1nc2cccc(F)c2c(=O)n1-c1ccccc1 [GS-1101] (1 nM) | 89.9 | 92.5 | 93.4 | 102 | 88 | 98.5 | 85.4 | 91.6 | 88.3 | 92 | 79.2 | 101 | 88.3 | 84.8 | 100 | 90.1 | 96.8 | 96.3 | 95.1
COc1cc2c(NC3CCN(C(C)C)CC3)nc(C3CCCCC3)nc2cc1OCCCN1CCCC1 [UNC0638] (10 nM) | 102 | 94.8 | 88.2 | 98.4 | 85.9 | 92.5 | 88 | 96.6 | 95.6 | 94.2 | 83 | 116 | 85.3 | 90.8 | 90.4 | 98 | 99.7 | 82.1 | 93.3
O=C(O)CCCCC(CCSCc1ccccc1)SCc1ccccc1 (centres undefined) [CPI-613] (1 nM) | 105 | 96.5 | 103 | 102 | 114 | 100 | 99.1 | 104 | 100 | 101 | 106 | 78.6 | 107 | 107 | 101 | 96.3 | 102 | 97.6 | 99.2
CNC(=O)c1cc(Oc2ccc(NC(=O)Nc3cc(C(C)(C)C)nn3-c3ccc4ncccc4c3)c(F)c2)ccn1 [Rebastinib] (0.1 nM) | 98.3 | 97.9 | 97.1 | 95.8 | 113 | 101 | 101 | 107 | 105 | 99.5 | 109 | 122 | 102 | 104 | 101 | 97.7 | 103 | 105 | 96.6
O=C(O)C1(C(=O)O)CCC1.[NH2-].[NH2-].[Pt+2] [Carboplatin] (1 nM) | 103 | 101 | 95.2 | 99 | 89.3 | 104 | 98.8 | 101 | 97.5 | 98.9 | 108 | 115 | 109 | 100 | 100 | 97 | 101 | 103 | 96.6
Nc1nc2[nH]cc(CCc3ccc(C(=O)N[C@@H](CCC(=O)O)C(=O)O)cc3)c2c(=O)[nH]1 [Pemetrexed] (1 nM) | 91.6 | 98.7 | 99 | 105 | 101 | 97.4 | 92.6 | 96.8 | 105 | 97.8 | 95.7 | 90 | 101 | 98.9 | 95.1 | 106 | 101 | 85.1 | 94.2
CCCCC(=O)OCC(=O)[C@]1(O)Cc2c(O)c3c(c(O)c2[C@@H](O[C@H]2C[C@H](NC(=O)C(F)(F)F)[C@H](O)[C@H](C)O2)C1)C(=O)c1c(OC)cccc1C3=O [Valrubicin] (0.5 nM) | 102 | 98.4 | 99.1 | 97.1 | 97.9 | 99.6 | 102 | 98.3 | 101 | 104 | 111 | 87.8 | 94.2 | 94 | 99.8 | 95.2 | 96 | 97.2 | 98.2
C=CC(=O)N1CCC[C@@H](n2nc(-c3ccc(Oc4ccccc4)cc3)c3c(N)ncnc32)C1 [Ibrutinib] (1 nM) | 106 | 98.2 | 105 | 97.8 | 98.1 | 105 | 108 | 95.3 | 98.2 | 103 | 111 | 102 | 107 | 114 | 106 | 97.7 | 99.3 | 102 | 98.3
Nc1nc2[nH]cc(CCc3ccc(C(=O)N[C@@H](CCC(=O)O)C(=O)O)cc3)c2c(=O)[nH]1 [Pemetrexed] (10 nM) | 106 | 91.3 | 93.9 | 108 | 97.1 | 96.9 | 94.9 | 104 | 99.5 | 98.2 | 100 | 73.3 | 92.8 | 98 | 95.3 | 105 | 98.5 | 88.7 | 97.5
C=CC(=O)Nc1cc2c(Nc3ccc(F)c(Cl)c3)ncnc2cc1OCCCN1CCOCC1 [Canertinib] (1 nM) | 95.6 | 94.5 | 106 | 104 | 103 | 104 | 105 | 97.3 | 98.8 | 96.8 | 108 | 104 | 108 | 103 | 105 | 95.2 | 98.6 | 93.3 | 103
O=C(Cc1ccc(-c2ccc(OCCN3CCOCC3)cc2)cn1)NCc1ccccc1 [KX2-391] (1 nM) | 105 | 102 | 102 | 105 | 120 | 107 | 106 | 99.4 | 100 | 105 | 121 | 107 | 113 | 107 | 101 | 97.2 | 103 | 83.3 | 95.2
C[C@H]1C[C@@H]2[C@H]([C@@H](O)C[C@@]3(C)[C@H]2CC[C@]3(O)C(=O)CO)[C@@]2(C)C=CC(=O)C=C12 [Methylprednisolone] (10 nM) | 104 | 110 | 99.8 | 101 | 109 | 135 | 112 | 101 | 96.8 | 127 | 113 | 116 | 108 | 111 | 108 | 96.2 | 103 | 93.7 | 112
Oc1ncc(N(CCCl)CCCl)c(O)n1 [Uracil mustard] (1 nM) | 102 | 95.8 | 107 | 89.4 | 99.7 | 97.2 | 101 | 103 | 98.8 | 105 | 105 | 115 | 105 | 101 | 95.6 | 98.6 | 99.7 | 105 | 94.2
CC[C@H](Nc1ncnc2[nH]cnc12)c1nc2cccc(F)c2c(=O)n1-c1ccccc1 [GS-1101] (10 nM) | 93.2 | 88.3 | 99.8 | 92.7 | 65 | 93.2 | 87.8 | 92.3 | 94.2 | 93.7 | 89.7 | 122 | 89.1 | 87 | 100 | 93.2 | 97.4 | 112 | 95.3
O=C(O)CCCCC(CCSCc1ccccc1)SCc1ccccc1 (centres undefined) [CPI-613] (10 nM) | 108 | 105 | 101 | 89.8 | 109 | 96.2 | 105 | 99 | 102 | 105 | 112 | 95.5 | 105 | 103 | 104 | 98.7 | 96.6 | 118 | 97.8
COc1cc2c(Oc3ccc4[nH]c(C)cc4c3F)ncnc2cc1OCCCN1CCCC1 [Cediranib] (0.1 nM) | 98.1 | 93.3 | 110 | 101 | 106 | 109 | 103 | 104 | 103 | 113 | 100 | 113 | 107 | 109 | 99.9 | 101 | 94.8 | 93.4 | 101
N#Cc1ccc(C(c2ccc(C#N)cc2)n2cncn2)cc1 [Letrozole] (1 nM) | 97.5 | 104 | 104 | 103 | 106 | 98.2 | 98.8 | 89.2 | 94.1 | 99.8 | 110 | 121 | 113 | 92 | 97.8 | 95.7 | 105 | 122 | 100
CC1=C(/C=C/C(C)=C/C=C/C(C)=C/C(=O)O)C(C)(C)CCC1 [Tretinoin] (10 nM) | 95.8 | 94.1 | 97.7 | 96.9 | 97 | 101 | 103 | 98 | 94.4 | 96.6 | 83.7 | 81 | 94.7 | 97.8 | 98.5 | 93.2 | 97.7 | 102 | 100
CNC(=O)c1cc(Oc2ccc(NC(=O)Nc3cc(C(C)(C)C)nn3-c3ccc4ncccc4c3)c(F)c2)ccn1 [Rebastinib] (1 nM) | 104 | 99.5 | 96.3 | 93.8 | 104 | 94.7 | 100 | 97.6 | 100 | 98.8 | 109 | 123 | 93.5 | 109 | 98.8 | 99.1 | 103 | 102 | 99.5
CC(=O)Nc1cccc(-n2c(=O)n(C3CC3)c(=O)c3c(Nc4ccc(I)cc4F)n(C)c(=O)c(C)c32)c1 [Trametinib] (0.025 nM) | 95.5 | 100 | 99.4 | 94.9 | 110 | 104 | 100 | 96.5 | 98.6 | 111 | 96.3 | 115 | 109 | 111 | 99.2 | 106 | 99.5 | 101 | 102
COc1cc2c(NC3CCN(C(C)C)CC3)nc(C3CCCCC3)nc2cc1OCCCN1CCCC1 [UNC0638] (1 nM) | 94.6 | 90 | 90.5 | 103 | 90.8 | 93.3 | 87.1 | 95.3 | 103 | 91.1 | 84.2 | 117 | 95.6 | 86.8 | 88.9 | 104 | 99.7 | 76.7 | 97.4
